From US11608323B2 (SYNGENTA LIMITED, priority 2013, dated 2023)

What was measured:
Type in all cases: in vivo
[1] = test system: ZEAMX; test: Post-emergence herbicidal activity, glasshouse pot test; details: Zea mays; application post-emergence; rate 1000 g/Ha; evaluated after 13 days
Summary of the method: (§1)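 Damage rating 0 (none) to 5 (total), assessed 13 days after spraying. Plants received the compound in acetone/water 50:50 with 0.5% Tween 20 at 8 days post-sowing, then were kept at 24/16 °C, 14 h photoperiod, 65% RH.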

[2] = test system: ALOMY; test: as above; details: Alopecurus myosuroides; application post-emergence; rate 1000 g/Ha; evaluated after 13 days
Summary of the method: as §1

[3] = test system: SETFA; test: as above; details: Setaria faberi; application post-emergence; rate 1000 g/Ha; evaluated after 13 days
Summary of the method: as §1

[4] = test system: AMARE; test: as above; details: Amaranthus retroflexus; application post-emergence; rate 1000 g/Ha; evaluated after 13 days
Summary of the method: as §1

[5] = test system: ABUTH; test: as above; details: Abutilon theophrasti; application post-emergence; rate 1000 g/Ha; evaluated after 13 days
Summary of the method: as §1

[6] = test system: ECHCG; test: as above; details: Echinochloa crus-galli; application post-emergence; rate 1000 g/Ha; evaluated after 13 days
Summary of the method: as §1

[7] = test system: ZEAMX; test: Pre-emergence herbicidal activity, glasshouse pot test; details: rate 1000 g/Ha, evaluated after 13 days, scale 0-5
Summary of the method: (§2)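 Pre-emergence spray, one day post-sowing; vehicle acetone/water (50:50) + 0.5% Tween 20, aqueous dilution. Glasshouse 24/16 °C, 14 h light, 65% RH, watering twice daily. Score at 13 d on 0–5 scale, 5 = total damage.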

[8] = test system: ALOMY; test: as above; details: rate 1000 g/Ha, evaluated after 13 days, scale 0-5
Summary of the method: as §2

[9] = test system: SETFA; test: as above; details: rate 1000 g/Ha, evaluated after 13 days, scale 0-5
Summary of the method: as §2

[10] = test system: AMARE; test: as above; details: rate 1000 g/Ha, evaluated after 13 days, scale 0-5
Summary of the method: as §2

[11] = test system: ABUTH; test: as above; details: rate 1000 g/Ha, evaluated after 13 days, scale 0-5
Summary of the method: as §2

[12] = test system: ECHCG; test: as above; details: rate 1000 g/Ha, evaluated after 13 days, scale 0-5
Summary of the method: as §2

Structure (SMILES) | Post-emergence herbicidal activity ZEAMX (damage score 0-5) [1] | Post-emergence herbicidal activity ALOMY (damage score 0-5) [2] | Post-emergence herbicidal activity SETFA (damage score 0-5) [3] | Post-emergence herbicidal activity AMARE (damage score 0-5) [4] | Post-emergence herbicidal activity ABUTH (damage score 0-5) [5] | Post-emergence herbicidal activity ECHCG (damage score 0-5) [6] | ZEAMX damage score, application pre-emergence [7] | ALOMY damage score, application pre-emergence [8] | SETFA damage score, application pre-emergence [9] | AMARE damage score, application pre-emergence [10] | ABUTH damage score, application pre-emergence [11] | ECHCG damage score, application pre-emergence [12]
CCOC1C(OC(C)=O)N(c2cc(C(F)(F)F)ccn2)C(=O)N1C (stereo not drawn) [Compound A96] | 3 | 5 | 5 | 5 | 5 | 5 | 1 | 4 | 4 | 5 | 5 | 4
CN1C(=O)N(c2cc(C(F)(F)F)ccn2)C(O)C1OCC(F)(F)F (stereo not drawn) [Compound A39] | 1 | 5 | 5 | 5 | 5 | 5 | 1 | 4 | 2 | 5 | 5 | 3
CC(C)OC1C(O)N(c2cc(C(F)(F)F)ccn2)C(=O)N1C (stereo not drawn) [Compound A48] | 1 | 4 | 4 | 5 | 5 | 4 | 1 | 4 | 3 | 5 | 5 | 1
CCOC1C(OC(=O)[C@@H]2[C@@H](C=C(Cl)Cl)C2(C)C)N(c2cc(C(F)(F)F)ccn2)C(=O)N1C (stereo partly drawn) [Compound A98] | 1 | 0 | 0 | 4 | 0 | 0 | 0 | 0 | 0 | 0 | 0 | 0
CC1C(O)N(c2cc(C(F)(F)F)c(I)cn2)C(=O)N1C (stereo not drawn) [Compound A25, 5-hydroxy-1-[5-iodo-4-(trifluoromethyl)-2-pyridyl]-3,4-dimethyl-imidazolidin-2-one] | 5 | 5 | 5 | 5 | 5 | 5 | 2 | 4 | 4 | 5 | 5 | 5
CC1C(O)N(c2cc(C(C)(F)F)ccn2)C(=O)N1C (stereo not drawn) [Compound A60] | 3 | 4 | 3 | 5 | 5 | 4 | 0 | 1 | 1 | 5 | 5 | 1
CON1CC(O)N(c2cc(C(F)(F)F)ccn2)C1=O (stereo not drawn) [Compound A36] | 2 | 4 | 3 | 5 | 1 | 5 | 0 | 2 | 2 | 5 | 1 | 4
CON1C(=O)N(c2cc(C(F)(F)F)c(C)cn2)C(O)C1C (single isomer, unassigned) [Compound A58] | 4 | 4 | 5 | 5 | 5 | 5 | 4 | 4 | 3 | 5 | 5 | 3
COc1ccncc1-c1cnc(N2C(=O)N(C)C(C)C2O)cc1C(F)(F)F (stereo not drawn) [Compound A23] | 2 | 4 | 4 | 5 | 5 | 2 | 1 | 3 | 3 | 5 | 2 | 2
CCOC1C(OC(=O)[C@@H](C)c2ccc(CC(C)C)cc2)N(c2cc(C(F)(F)F)ccn2)C(=O)N1C (stereo partly drawn) [Compound A99] | 1 | 0 | 0 | 5 | 1 | 3 | 0 | 0 | 0 | 5 | 1 | 0
COCC1C(O)N(c2cc(C(F)(F)F)ccn2)C(=O)N1C (racemic) [Compound A54] | 4 | 5 | 5 | 5 | 5 | 5 | 0 | 3 | 2 | 5 | 5 | 2
